Literature values in patent US20210379059A1, “COMBINATION OF SUBSTANCES FOR REGENERATIVE THERAPY IN PATIENTS WITH TYPE 1 DIABETES MELLITUS” (Levicure Ltd., priority 2018, published 2021).
Read-outs that look alike come from different tables or passages of the source.

Assays:
β-cells [1] = conditions: mouse cell cultures
β-cells [2] = conditions: human cell cultures
[3] = system: adult patients with type 1 diabetes; conditions: 8 weeks, despite a reduction of total and lunch dose of insulin

Structure (SMILES)	regeneration of β-cells (β-cells [1])	regeneration of β-cells (β-cells [2])	blood glucose levels [3]
NCCCC(=O)O [GABA, gamma-aminobutyric acid]	provide the regeneration of β-cells	provide the regeneration of β-cells	
N[C@@H](CC(=O)N1CCn2c(nnc2C(F)(F)F)C1)Cc1cc(F)c(F)cc1F [Sitagliptin]			significantly reduced
